According to patent publication US5017584A, “Antidepressant 2-(4,5-dihydro-1H-imidazolyl)-dihydro-1H-indoles, -1,2,3,4-tetrahydroquinolines and -1H-indoles, and methods of use thereas” (Sterling Drug Inc., priority 1985, dated 1991):
Several values for one entry are separate records, joined by “and”; a condition that tells them apart may be missing. Equal values may be shown once. Read-outs that look alike come from different tables or passages of the source.

Legend:
[1] = system: mice; test: In Vivo Antagonism of Clonidine-Induced Anti-Nociception (phenyl-p-quinone writhing); settings: Mus musculus; for ED50: read-out: ED50, Antagonism of Clonidine Analgesia; for responders at 3 mg/kg: 3 mg/kg s.c.
Description: (§1) The α2 -adrenergic antagonist activity of the compounds of the invention was determined by three screening methods, described as follows:
In Vivo Antagonism of Clonidine-Induced Anti-Nociception
The intraperitoneal administration of phenyl-p-quinone (PPQ) to mice elicits a nociceptive response which consists of abdominal writhing and extension of the hind limbs. This writhing response is prevented in mice pretreated with clonidine. […] To groups of thirty male mice for each experiment, the test compound dissolved in 0.9% sodium chloride was administered either subcutaneously or orally. […] The number of mice that writhed at least three times during the five minute observation period was counted. The number of mice that writhed was scored for each dose of antagonist, and the percentage reversal of clonidine-induced anti-nociception (analgesia) was calculated by dividing the number of animals writhing by the total number of test animals and multiplying the quotient by 100. The results are also expressed as an ED50, the effective dose (in mg./kg.) in 50% of the animals to effect antagonism of clonidine-induced analgesia.

[2] = molecular target: T1, isolated, electrically stimulated rat vas deferens (Rattus norvegicus, UniProt P22909); test: Vas Deferens Assay: antagonism of clonidine-induced inhibition of twitch height in isolated, electrically stimulated rat vas deferens; settings: for inhibition at 0.5 µM: 500 nM; for Twitch height: reversal by yohimbine
T1 construct: isolated, electrically stimulated rat vas deferens; from tissue; host or cells: isolated rat vas deferens
T1 sequence (P22909 1-465): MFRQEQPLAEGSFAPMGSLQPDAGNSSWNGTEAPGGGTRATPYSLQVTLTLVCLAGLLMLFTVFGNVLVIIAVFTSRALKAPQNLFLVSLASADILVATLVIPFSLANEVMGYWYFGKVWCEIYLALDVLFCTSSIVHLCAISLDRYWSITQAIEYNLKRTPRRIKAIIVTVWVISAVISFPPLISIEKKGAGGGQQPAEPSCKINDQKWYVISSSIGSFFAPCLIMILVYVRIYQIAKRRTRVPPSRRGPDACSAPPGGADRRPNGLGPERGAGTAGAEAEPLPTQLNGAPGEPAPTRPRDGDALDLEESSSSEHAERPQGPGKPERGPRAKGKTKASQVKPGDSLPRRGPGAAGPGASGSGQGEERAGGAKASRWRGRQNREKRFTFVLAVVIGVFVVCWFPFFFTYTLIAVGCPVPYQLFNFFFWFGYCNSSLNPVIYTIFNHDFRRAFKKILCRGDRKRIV
Description: as §1
Results are expressed either in terms of percent inhibition at the concentration of antagonist used or as pA2 values, determined by the Schild method; cf. Tallarida and Murray, Manual of Pharmacologic Calculations, pp. 29-32 (Springer-Verlag, 1981). The pA2 value is the negative logarithms of the concentration of antagonist required to cause a two-fold shift in the dose response curve to clonidine-induced inhibition of twitch height.

[3] = cited from earlier work
[4] = phenylquinone writing test; cited from earlier work
[5] = molecular target: T2, α2-adrenergic receptor (Rattus norvegicus, UniProt P22909); test: Tritiated Clonidine Receptor Binding Assay (inhibition of 3H-clonidine binding to rat cerebral cortex membranes); settings: for Ki: 0.4 nM 3H-clonidine, rat cerebral cortex membranes; for inhibition at 1 µM: read-out: % I, Clonidine [3H] Binding, 1000 nM
T2 construct: Homogenates of rat cerebral cortex; from tissue; host or cells: rat cerebral cortex homogenate (membranes)
T2 sequence (P22909 1-465): T1 sequence (P22909 1-465)
Description: as §1
The results are expressed either in terms of percent inhibition at the concentration of antagonist used or as Ki values.

[6] = sc, read-out: % A, Antagonism of Clonidine Analgesia, 1 mg/kg s.c.
[7] = sc, read-out: % A, Antagonism of Clonidine Analgesia
[8] = sc, read-out: % A, Antagonism of Clonidine Analgesia, 10 mg/kg s.c.
[9] = po, read-out: % A, Antagonism of Clonidine Analgesia, 10 mg/kg p.o.
[10] = po, read-out: % A, Antagonism of Clonidine Analgesia, 30 mg/kg p.o.
[11] = rat, 100 nM, read-out: % A, rat vas deferens
[12] = rat, read-out: % A, rat vas deferens
[13] = read-out: pA2, rat vas deferens (converted)
[14] = sc, read-out: % A, Antagonism of Clonidine Analgesia, 30 mg/kg s.c.
[15] = rat, read-out: % A, rat vas deferens, 100 nM

C[C@H]1c2ccccc2N(C)[C@@H]1C1=NCCN1 (relative stereo) [Example 1T]
ED50 ([1]; po, p.o.): 41 mg/kg
Kb [2]: 110 nM

C[C@@H]1c2ccccc2N(C)[C@@H]1C1=NCCN1 (relative stereo) [Example 1Z]
responders at 0.1 mg/kg ([1]; sc, read-out: % A, Antagonism of Clonidine Analgesia, 0.1 mg/kg s.c.): 80%
responders at 0.3 mg/kg ([1]; sc, read-out: % A, Antagonism of Clonidine Analgesia, 0.3 mg/kg s.c.): 70%
responders at 1 mg/kg [1, 6]: 30%
responders at 3 mg/kg [1, 7]: 0%
responders at 10 mg/kg [1, 8]: 0%
agonist activity, rat vas deferens ([2]; as agonist): active
antagonist activity, rat vas deferens ([2]; as antagonist): Inac.

c1ccc2c(c1)CCN2C1=NCCN1 [1-(4,5-dihydro-1H-imidazol-2-yl)-2,3-dihydro-1H-indole]
analeptic activity, antagonism of chloral hydrate ([3]; chloral hydrate): inactive
analeptic activity, antagonism of pentobarbital ([3]; pentobarbital): active
analgesic activity [4]: active

CN1c2ccc(F)cc2CC1C1=NCCN1 (centres unmarked) [Example 1A, 2-(4,5-dihydro-1H-imidazol-2-yl)-5-fluoro-2,3-dihydro-1-methyl-1H-indole]
Ki [5]: 0.92 nM
ED50 ([1]; po, p.o.): 0.75 mg/kg
ED50 ([1]; sc, s.c.): 0.0071 mg/kg
Kb [2]: 3.55 nM

COCC1(C2=NCCN2)Cc2ccccc2N1C (centres unmarked) [Example 1AA]
% I, Clonidine [3H] Binding ([5]; concentration not given): 43.5%
responders at 1 mg/kg ([1]; po, read-out: % A, Antagonism of Clonidine Analgesia, 1 mg/kg p.o.): 0%
responders at 10 mg/kg [1, 9]: 10%
responders at 30 mg/kg [1, 10]: 70%
ED50 ([1]; po, p.o.): 21.8 mg/kg
ED50 ([1]; sc, s.c.): 2.6 mg/kg
% A, rat vas deferens ([2]; 100 nM, 0.1 µM): 7%
inhibition at 0.1 µM [2, 11]: 6%
inhibition at 0.5 µM [2, 12]: 52%
inhibition at 0.5 µM ([2]; rat, read-out: reduced twitch height): 67%

CSCC1(C2=NCCN2)Cc2ccccc2N1C (centres unmarked) [Example 1AB]
responders at 10 mg/kg [1, 9]: 0%
responders at 30 mg/kg [1, 10]: 90%
Twitch height [2]: reversed by yohimbine

CC(C)N(CC1(C2=NCCN2)Cc2ccccc2N1C)C(C)C (centres unmarked) [Example 1AC]
responders at 10 mg/kg [1, 9]: 50%
responders at 30 mg/kg [1, 10]: 50%
Twitch height [2]: reversed by yohimbine

CCN1CCN=C1C1C(C)c2ccccc2N1C (centres unmarked) [Example 1AD]
fold shift of clonidine ([2]; 20 μm): 3.5 fold

CC1c2ccccc2N(C)C1CC1=NCCN1 (centres unmarked) [Example 1AE]
fold shift of clonidine ([2]; 20 μm): 15 fold

C=C1c2ccccc2N(C)C1(C)C1=NCCN1 (centres unmarked) [Example 1AF]
fold shift of clonidine ([2]; 10 μm): 23.9 fold

COc1c(C2=NCCN2)n(C)c2ccccc12 [Example 1AG]
fold shift of clonidine ([2]; 10 μm): 3.9 fold

CN1c2ccccc2CC1C1=NCCN1 (centres unmarked) [Example 1B]
Ki [5]: 0.46 nM
ED50 ([1]; sc, s.c.): 12 mg/kg
Kb [2]: 3.31 nM

CCN1c2ccccc2CC1C1=NCCN1 (centres unmarked) [Example 1C]
Ki [5]: 0.91 nM
ED50 ([1]; po, p.o.): 0.098 mg/kg
ED50 ([1]; sc, s.c.): 0.034 mg/kg
Kb [2]: 1.23 nM

C=CCC1(C2=NCCN2)Cc2ccccc2N1C (centres unmarked) [Example 1D]
inhibition at 1 µM [5]: 85%
ED50 ([1]; po, p.o.): 11.1 mg/kg
Kb [2, 13]: 110 nM

c1ccc(CN2c3ccccc3CC2C2=NCCN2)cc1 (centres unmarked) [Example 1E]
Ki [5]: 2.3 nM
ED50 ([1]; po, p.o.): 0.051 mg/kg
ED50 ([1]; sc, s.c.): 0.18 mg/kg
Kb [2, 13]: 11.7 nM

CN1c2ccccc2CC1(C)C1=NCCN1 (centres unmarked) [Example 1F]
Ki [5]: 3.39 nM
ED50 ([1]; po, p.o.): 8.8 mg/kg
Kb [2]: 28.2 nM

CN1c2ccccc2CC1CC1=NCCN1 (centres unmarked) [Example 1G]
Ki [5]: 355 nM
responders at 30 mg/kg [1, 14]: 0%

CN1c2ccc(Cl)cc2CC1C1=NCCN1 (centres unmarked) [Example 1H]
ED50 ([1]; po, p.o.): 1.5 mg/kg
Kb [2]: 2.75 nM

CCCN1c2ccccc2CC1C1=NCCN1 (centres unmarked) [Example 1J]
Kb [2]: 1.74 nM

CN1c2c(Cl)cccc2CC1C1=NCCN1 (centres unmarked) [Example 1K]
responders at 0.03 mg/kg ([1]; sc, read-out: % A, Antagonism of Clonidine Analgesia, 0.03 mg/kg s.c.): 70%
responders at 1 mg/kg [1, 6]: 100%
responders at 3 mg/kg [1, 7]: 100%
responders at 10 mg/kg [1, 8]: 100%
Kb [2]: 1.58 nM

CCCCN1c2ccccc2CC1C1=NCCN1 (centres unmarked) [Example 1L]
responders at 3 mg/kg [1, 7]: 20%
responders at 5.5 mg/kg ([1]; sc, read-out: % A, Antagonism of Clonidine Analgesia, 5.5 mg/kg s.c.): 100%
responders at 10 mg/kg [1, 8]: 100%
Kb [2]: 1.58 nM

C=CCN1c2ccccc2CC1C1=NCCN1 (centres unmarked) [Example 1M]
ED50 ([1]; po, p.o.): 2.6 mg/kg
Kb [2]: 0.851 nM

CCOCCN1c2ccccc2CC1C1=NCCN1 (centres unmarked) [Example 1N]
ED50 ([1]; po, p.o.): 26.5 mg/kg
Kb [2]: 15.5 nM

c1ccc2c(c1)CC(C1=NCCN1)N2 (centres unmarked) [Example 1O]
ED50 ([1]; po, p.o.): 1.8 mg/kg
Kb [2]: 6.92 nM

CN1c2ccc(Cc3ccccc3)cc2CC1C1=NCCN1 (centres unmarked) [Example 1P]
ED50 ([1]; sc, s.c.): 11.3 mg/kg
Kb [2, 13]: 25.7 nM

c1ccc(CCN2c3ccccc3CC2C2=NCCN2)cc1 (centres unmarked) [Example 1Q]
inhibition at 0.1 µM [2, 11]: 81%
inhibition at 0.5 µM [2, 12]: 94%

c1ccc(N2c3ccccc3CC2C2=NCCN2)cc1 (centres unmarked) [Example 1R]
ED50 ([1]; po, p.o.): 19.8 mg/kg
inhibition at 0.1 µM [2, 15]: 100%

CN1c2c(Cl)cc(Cl)cc2CC1C1=NCCN1 (centres unmarked) [Example 1S]
ED50 ([1]; po, p.o.): 60.1 mg/kg
Kb [2]: 10 nM

c1ccc2c(c1)CCC(C1=NCCN1)N2 (centres unmarked) [Example 1U]
ED50 ([1]; po, p.o.): 3.8 mg/kg
Kb [2]: 9.33 nM

CN1c2ccccc2CCC1C1=NCCN1 (centres unmarked) [Example 1V]
ED50 ([1]; po, p.o.): 2.6 mg/kg
Kb [2]: 7.41 nM

c1ccc(C2CC(C3=NCCN3)Nc3ccccc32)cc1 (centres unmarked) [Example 1W]
inhibition at 1 µM [5]: 44.6%
% A, rat vas deferens ([2]; 0.1 nM, 0.0001 µM): 3%
% A, rat vas deferens ([2]; 1 nM, 0.001 µM): 0% and 1%
inhibition at 0.0001 µM ([2]; rat, 0.1 nM): 2%

Cn1c(CC2=NCCN2)cc2ccccc21 [Example 1X]
responders at 10 mg/kg [1, 9]: 0%
responders at 30 mg/kg [1, 10]: 10%
responders at 100 mg/kg ([1]; po, read-out: % A, Antagonism of Clonidine Analgesia, 100 mg/kg p.o.): 50%
responders at 10 mg/kg [1, 8]: 50%
responders at 30 mg/kg [1, 14]: 60%
responders at 100 mg/kg ([1]; sc, read-out: % A, Antagonism of Clonidine Analgesia, 100 mg/kg s.c.): 50%
Kb [2]: 33.1 nM

Cn1c(C2=NCCN2)cc2ccccc21 [Example 1Y]
inhibition at 1 µM [5]: 32.5%
inhibition at 0.1 µM [2, 15]: 3%
